Assay results from patent US8916595B2, “Plant disease controlling composition and method for controlling plant disease” (Sumitomo Chemical Company, Limited, priority 2010, dated 2014).

System: gray mold fungus (Botrytis cinerea)
Assay: Cucumber leaf disk preventive test against gray mold fungus (spray inoculation, onset area rate)
Type: in vivo
Conditions: single compound, 15° C., four days
Protocol: True leaf of cucumber is punched out with cork borer to 13 mm in diameter to prepare a leaf disk. In 24 well microwell plate that is dispensed with 1 ml 0.8% water agar, the leaf disk is placed such that the upper side of the leaf is in an upward direction. Thereto is added 20 micro liter a testing solution prepared by mixing a dimethyl sulfoxide solution of the present compound (racemate) and a dimethyl sulfoxide solution of benthiavalicarb to a predetermined concentration to treat the leaf disk.
After confirming that the testing medical solution is dried, conidium of gray mold fungus (Botrytis cinerea) is suspended into potato dextrose broth (DIFCO) in a density of about 10^5 conidium/mL and is then subjected to a spray inoculation. After leaving to stand the leaf disk in a growth chamber set up at 15° C. for four days, an onset area on the leaf is measured and then calculated an onset area rate (hereinafter, referred to as an onset area rate of treated group).
The same operation is carried out with 20 micro liter water instead of 20 micro liter a testing medicine solution to calculate an onset area rate (hereinafter, referred to an onset area rate of non-treated group).
A preventive value is calculated from the above onset area rate of treated group and the onset area rate of non-treated group by the following equation: Preventive value(%)=100×(A−B)/A
A: an onset area rate of treated group
B: an onset area rate of non-treated group
The same operations as described in Test Example 1 are carried out with iprovalicarb instead of benthiavalicarb, so as to calculate a preventive value.
Also for comparison, the same operations as described in Test Example 1 are carried out with the exception that the testing medicine solution is substituted with a predetermined concentration of each dimethyl sulfoxide solution of the present compound (racemate) or iprovalicarb, so as to calculate respective preventive values.
For comparison, the same operations as described in Test Example 1 are carried out with the exception that the testing medicine solution is substituted with a predetermined concentration of a dimethyl sulfoxide solution of benthiavalicarb, so as to calculate a preventive value.

[1] = treatment concentration 0.5 ppm
[2] = treatment concentration 5.0 ppm

Structure (SMILES)	preventive value (%) [1] [%]	preventive value (%) [2] [%]
Cc1ccc(C(C)NC(=O)[C@@H](NC(=O)OC(C)C)C(C)C)cc1 (stereo partly shown) [iprovalicarb]	0	15
CC(C)[C@H](NC(=O)O)C(=O)N[C@H](C)c1nc2ccc(F)cc2s1 [benthiavalicarb]	0	15
